Entries after “also recorded” stand apart in the source; their conditions may differ. Like-named read-outs stand apart in the source and are kept apart here.
Assays:
[1] = LC-MS/MS measurement of CASIN pharmacokinetics in mouse serum; format: in vivo, C57BL/6 mice; conditions: for concentration at 3 h: female, C57BL/6, mouse, serum, intraperitoneal, 25 mg/kg
Description: CASIN solution and IP treatment. CASIN was prepared fresh before injection by dissolving the drug directly in beta-cyclodextrin solution (Sigma #H5784). IP injections were performed in the morning, every 24 hours, for 4 consecutive days during week 75 of age of the mice. Control mice were injected with equal volume of the solvent. Serum for the cytokine array was prepared from the day 7 bleeding point. […] The same stock of CASIN was used for the entire study. CASIN was provided as lyophilized powder.
Liquid Chromatography-Mass Spectrometry (LC-MS/MS) measurements of CASIN pharmacokinetics in mouse serum. A LC/MS/MS ion chromatography protocol was employed to measure serum CASIN concentration ranging 0.1-10 μM by comparing serum CASIN from i.p. injected mice at varying times with a standard curve derived by in vitro spiking of mouse serum with defined doses of CASIN. An Autosampler maximum recovery vials with caps (Waters), an UPLC-MS system (Waters Quattro Premier XE mass spectrometry with ACQUITY UPLC system), an Acquity BEH C18 UPLC column (2.1×75 mm, 1.7 μm) (Waters), and an Acquity BEH C18 UPLC guard column (Waters) were used. For LC gradient, solvent A contained acetonitrile/water (5/95) with 2 mM ammonium acetate and solvent B contained acetonitrile/water (90/10). The gradient mobile phase switched from 60% solvent A to 57% solvent A over 2 min, to 50% solvent A at 2.1 min, to 46% solvent A over 9.9 min, and then, after changing to 30% at 12.1 min, to 1% solvent A over 5.9 min, then to 60% solvent A at 18.1 min and this was held for 2 min. Column temperature was kept at 25° C. The capillary voltage was 3 KV for electrospray negative (ES-) mode, cone voltage is 45 V, collision 30 V, desolvation temperature, 350° C.; desolvation gas flow is 600 L/h; source temperature was 120° C.; and MRM transition m/z is 305.1->244.
(§1) To determine that a short-term systemic treatment of aged animals with a Cdc42-specific inhibitor would regulate lifespan, CASIN was administered i.p. every 24 hours for 4 consecutive days to 75-week old female C57BL/6 mice (FIG. 1a). CASIN levels in serum were monitored via liquid chromatography-mass spectrometry (FIGS. 2a and 2b). A 50 mg/kg single dose resulted initially in a concentration of about 10 μM in serum (data not shown).

[2] = test system: hepatitis B virus (HBV) core antigen; experiment: DNA vaccination response with pCI/C DNA encoding HBV core antigen; format: in vivo, C57BL/6 mice; conditions: aged mice, 13 days after immunization, OLD Solvent vs. OLD CASIN, p<0.05, FIG. 5(B)
Description: (§2) Briefly, 75 week-old C57BL/6 mice (referred to in the results as “Old”) and 12-16 week old mice (referred to in the results as “young”) were injected intraperitoneal (“IP”) every 24 hours for four days with a Cdc42-specific inhibitor (e.g., CASIN) at a dosage of interest (e.g., 25 mg/kg) or with solvent as a control group (referred to in the results as “Solvent”). On the fifth day, mice were treated with 5-fluorouracil (“5-FU”). Two methods of vaccination were investigated.
For DNA vaccination: 12 weeks after transplantation, recipient mice were immunized with pCI/C DNA encoding the hepatitis B virus (“HBV”) core antigen. FIG. 5(B) provides the results for DNA vaccination with the HBV core antigen 13 days after immunization along with an ovalbumin (“Ova”) specific immune response. The frequency of interferon gamma positive CD3^+CD8^+ T-cells was analyzed, which is an established surrogate measurement for the success of DNA vaccination protocols. […] In FIG. 5(C), splenic K^b/C93-100-dimer^+ CD8^+ T-cell frequencies were determined by flow cytometry 13 days post-immunization with the HBV core antigen. These T-cell frequencies are a direct measurement of antigen-specific T-cells.

[3] = test system: 75-week old female C57BL/6 mice; experiment: Lifespan (longevity) study of aged mice, 4-day i.p. treatment; format: in vivo
Description: (§3) Mice. Mice included in the study were female C57BL/6 and were obtained from the internal divisional stock (derived from C57BL/6j mice obtained from both The Jackson Laboratory and NIA/Charles River as well as from C57BL/6JRj mice from Janvier). For the longevity study described herein, 40 mice were randomly selected at 70 weeks of age. Mice were weighed and bled before the beginning of the treatment (day 0) and at day 7 and 35. […] Mice that needed to be euthanized because they were scored as “weak and about to die” according to our approved animal license protocol for evaluating mouse health status remained part of the dataset. Allocation to control or treated group was done randomly (20 mice each experimental group).
Median lifespan, 95% confidence intervals and survival analysis were calculated by Prism GraphPad v7.0c. Of note, the median lifespan of the control group matched data obtained for C57BL/6j mice in a large set of lifespan studies of diverse inbred mouse strains. […]
as §1, with “A 50 mg/kg single dose resulted initially in a concentration of about 10 μM in serum (data not shown).” left out

[4] = test system: inactivated influenza virus (H3N2); experiment: Viral vaccination response, inactivated influenza virus, antibody titer by ELISA; format: in vivo, C57BL/6 mice; conditions: aged mice, 21 days after the second vaccination, immunized 12 weeks post CASIN treatment, FIG. 5(D)
Description: as §2
For viral vaccination, animals were immunized twice at an interval of 4 weeks with inactivated influenza virus (10 μg H3N2+10 μL Al(OH)3) i.m. 12 weeks post CASIN treatment. The antibody titer was determined in serum 21 days after the second vaccination using ELISA technology. n=at least 3 per experiment.

[5] = Toxicity, weight and peripheral blood counts in the lifespan study; format: in vivo
Description: as §3
Flow cytometry of Peripheral Blood (PB). PB cell immunostaining was performed according to standard procedures and samples were analyzed on a LSRII flow cytometer (BD Biosciences). For PB lineage analysis, the antibodies used were from eBioscience: anti-CD3ε (clone 145-2C11), anti-B220 (clone RA3-6B2), anti-Mac-1 (clone M1/70) and anti-Gr-1 (clone […]). Lineage FACS analysis data were plotted as the percentage of B220+, CD3+ and Myeloid (Gr-1+, Mac-1+ and Gr-1+Mac-1+) cells among total white blood cells. WBC (white blood cell), RBC (red blood cell), Ly (lymphocytes), NE (neutrophils), and Mo (monocyte) counts were generated by using the hemocytometer Hemavet 950, DREW SCIENTIFIC Inc, (FL 33014), USA.
(§4) Accordingly, chronic toxicity issues from the administration of inhibitor was unlikely. […] Furthermore, CASIN treatment reversed Cdc42 activity in the aged mice cohort to an approximate level of activity seen in the young mice control cohort. Thus, CASIN treatment generally reverted Cdc42 activity levels in aged mice to the level existing in mice approximately 60 weeks younger in age.
(§5) Cytokine array analyses were performed to investigate the extent to which aging-associated inflammatory cytokines in serum of aged mice were affected by CASIN treatment.

[6] = test system: aging-associated inflammatory cytokines in serum; experiment: Cytokine array (Luminex) of serum of aged mice; format: in vivo, C57BL/6 mice
Description: CASIN solution and IP treatment. CASIN was prepared fresh before injection by dissolving the drug directly in beta-cyclodextrin solution (Sigma #H5784). IP injections were performed in the morning, every 24 hours, for 4 consecutive days during week 75 of age of the mice. Control mice were injected with equal volume of the solvent. Serum for the cytokine array was prepared from the day 7 bleeding point. Serum for mass spectrometry analysis of CASIN levels was prepared by bleeding an equal (for sex, strain, origin and age) cohort of mice 3 hours, 24 hours, and 48 hours after the end of the treatment. The same stock of CASIN was used for the entire study. CASIN was provided as lyophilized powder.
Cytokine array. Lumimex Method. Cytokine concentrations in the sample supernatants were determined by using Milliplex™ Multiplex kits (MilliporeSigma, Darmstadt, Germany) according to manufacturer's protocol. Briefly, in a 96 well black plate, 25 μL sample in duplicate was incubated with 25 μL antibody coated beads overnight at 4° C. on a plate shaker. Plates were then washed 2 times using BioTek 405 TS (BioTek, Winooski, Vt.) and 25 μL of secondary antibody was added and incubated at room temperature for 1 hour while shaking. Finally, 25 μL of streptavidin-RPE was added directly to the secondary antibody and incubated for 30 minutes at room temperature with shaking. Plates were then washed 2 more times and 150 μL of sheath fluid was added. Plates were shaken for 5 minutes and then read using luminex technology on the Milliplex Analyzer (MilliporeSigma, Darmstadt, Germany). Concentrations were calculated from standard curves using recombinant proteins and expressed in pg/ml.
as §5

Cdc42 = target: T1, Cdc42 (Mus musculus, UniProt P60766); experiment: Cdc42-GTPase effector domain pull-down assay in bone marrow cells after systemic in vivo treatment; set-up: species or system C57BL/6 mice; conditions: FIG. 1c
T1 construct: lineage depleted BM cells (10^6) were lysed in a Mg^2+ lysis/wash buffer; from tissue; host or cells: lineage-depleted bone marrow cells of C57BL/6 mice treated in vivo with CASIN
Description: Cdc42-GTPase effector domain pull-down assays. Relative levels of GTP-bound Cdc42 were determined by an effector pull-down assay. Briefly, lineage depleted BM cells (10^6) were lysed in a Mg^2+ lysis/wash buffer (Upstate cell signaling solutions) containing 10% glycerol, 25 mM sodium fluoride, 1 mM sodium orthovanadate and a protease inhibitor cocktail (Roche Diagnostics). Samples were incubated with PAK-1 binding domain/agarose beads and bound (activated) as well as unbound (non-activated) Cdc42 fractions were probed by immunoblotting with an anti-Cdc42 antibody (Millipore, rabbit polyclonal). Activated protein was normalized to total protein and/or 3-actin (Sigma) and the relative amount was quantified by densitometry.
as §4

T1 sequence (P60766 whole entry, the tested form may be a part): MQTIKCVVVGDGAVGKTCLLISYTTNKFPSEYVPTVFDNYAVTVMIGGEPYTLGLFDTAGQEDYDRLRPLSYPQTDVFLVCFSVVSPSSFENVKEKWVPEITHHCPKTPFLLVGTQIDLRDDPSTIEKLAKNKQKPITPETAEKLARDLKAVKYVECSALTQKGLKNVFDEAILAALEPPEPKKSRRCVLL

With OCCNC1CCCc2c1[nH]c1ccc(-c3ccccc3)cc21 (stereo not shown) [CASIN] the “CASIN remaining in serum at the end of the 48 hour window” value ([1]; 25 mg/kg i.p. for 4 consecutive days, 48 hours) was “approximately no CASIN remaining in serum”, the “CASIN concentration in serum” value ([1]; 50 mg/kg single dose, initially (data not shown)) was “about 10 μM” and the concentration at 3 h ([1]; 25 mg/kg i.p. for 4 consecutive days, 48 hour window of analysis, 3 hours, read-out: concentration of CASIN in serum after 3 hours) was roughly 2 µM. The concentration at 3 h ([1]; 25 mg/kg i.p., old mice, 3 hours after injection, FIG. 2b, read-out: levels of CASIN in serum 3 hours after injection) was roughly 5 µM, the “frequency of interferon gamma positive CD3+CD8+ T-cells” value [2] was “statistically significant increase in immune response” and the Median survival ([3]; aged mice treated at week 75, 25 mg/kg i.p. 4 consecutive days, n=17, control 123.5 weeks) was 136 weeks. The “average and maximum lifespan” value ([3]; aged mice treated for 4 consecutive days, FIG. 1d) was “extension of both their average and maximum lifespan”, the “antibody titer in serum” value [4] was “increase in antibody titer; also recorded: approximately equal to that seen in young mice” and the “red blood cell count (RBC)” value ([5]; day 7 and day 35, FIG. 2e) was “did not change”. The “white blood cell count (WBC)” value ([5]; day 7 and day 35, FIG. 2d) was “did not change”, the “frequency and count of myeloid and lymphoid cells in peripheral blood (PB)” value ([5]; day 7 and day 35, FIGS. 2f-k) was “did not change” and the weight ([5]; day 7 and day 35 after beginning of treatment, FIG. 2c) was “did not change”. The acute toxicity ([5]; four days of consecutive i.p. injections, 25 mg/kg, aged mice) was “did not induce acute toxicity”, the “deaths of treated mice after CASIN injections” value ([5]; within 4 weeks after injections) was “none of the treated mice died” and the “GM-CSF concentration in serum” value ([6]; day 7, FIG. 3) was “trend to be reduced”. For the same compound, the “IL-2 concentration in serum” value ([6]; day 7, FIG. 3) was “trend to be reduced”, the IL-9 serum concentration ([6]; day 7, FIG. 1h) was “increased in serum concentration” and the “Cdc42-GTP in aged bone marrow cells” value (Cdc42; 24 hours after the last injection, aged mice) was “reduction of Cdc42-GTP in aged bone marrow cells to the level seen in young”. The “decrease of Cdc42 activity” value (Cdc42; with no regard to the age of mouse) was “approximately half”.
